Legend:
[1] = Measurement of solubility in water (HPLC, saturated solution); assay type: physicochemical
Method: Experiment was conducted to measure water solubility of ODV phosphate compound of the present invention.
40, 50 and 60 mg of ODV phosphate composition prepared by the embodiment was mixed in 100 mL of water to form 0.4, 0.5 and 0.6 mg/mL concentration of ODV phosphate solution respectively. The above ODV phosphate solution and internal standard substance were analyzed with HPLC to measure ODV phosphate according to the concentration of ODV phosphate and peak area ratio of internal standard substance, and a calibration curve was set. The HPLC analysis was done many times to measure the average value of the calibration curve.
An excessive amount of ODV phosphate compound (approximately 400 mg) prepared by the embodiment was dissolved in 2 mL of water and filtered to form a saturated solution. 1 mL of the above saturated solution was diluted with water to prepare 20 mL of solution. The diluting process was repeated many times to form saturated solution with 800 times of dilution rate. This solution and internal standard substance were analyzed with HPLC to measure ODV phosphate and peak area ratio of internal standard. The measured value was substituted in calibration curve to calculate the concentration, and multiply the dilution rate to measure solubility.

[2] = Pharmacokinetics experiment, oral administration, blood concentration by LC/MS/MS; assay type: in vivo, SD rats; settings: 120 mg/kg oral
Method: 9-week-old female […], SD rats, weighing 320±20 g each, were used in the experiment (SPF, production firm: coretech). ODV phosphate compound prepared by the embodiment was dissolved in solvent (100% distilled water) and 120 mg/kg of the same was orally administered to 3 mice. After 0.08, 0.25, 0.5, 1, 2, 3, 4, 6 hours of administration, blood was taken from mice, and separated by centrifuge. The concentration of the separated blood was measured with LC/MS/MS. As a comparative example, ODV succinate hydrate was measured in the same manner explained above.
Cmax is the highest concentration level of blood in body, Tmax is the time to reach the highest concentration level of blood, AUC0-t is square between blood concentration to time and time, AUC0-inf is square between blood concentration and time, and t1/2 is half-life of compound in body, and MRTinf is remaining period of compound in body.

ICR mice = test: Acute toxicity experiment, intraperitoneal injection, number of dead mice over 7 days; assay type: in vivo; settings: for The number of death mice: Day 1, 8 mice
Method: Experiment was conducted to measure acute toxicity of ODV phosphate compound according to an embodiment of the present invention.
7-week-old ICR mice, weighing 25˜35 g each, were used in the experiment (SPF, production firm: coretech).

CN(C)CC(c1ccc(OP(=O)(O)O)cc1)C1(O)CCCCC1 (stereo not shown) [ODV phosphate, {4-[2-(dimethylamino)-1-(1-hydroxycyclohexyl)ethyl]phenoxy}phosphate]
water solubility, times higher than ODV succinate ([1]; 313.4 vs […]): 4 times
solubility ([1]; thermodynamic from solid): 313 mg/mL
AUC0-inf compared with ODV succinate hydrate [2]: noticeably higher
Cmax compared with ODV succinate hydrate [2]: noticeably higher
dead mice over the whole observation (ICR mice; 450 mg/kg i.p., for 7 days, 8 mice): no mice were dead

CN(C)CC(c1ccc(O)cc1)C1(O)CCCCC1.O=C(O)CCC(=O)O (stereo not shown) [ODV succinate]
AUC0-inf ([2]; blood): 9268.8 ng·h/mL
Cmax ([2]; blood): 2786.7 ng/mL
MRTinf ([2]; blood): 5.7 h
Tmax ([2]; blood): 0.5 h
t1/2 ([2]; blood): 5.0 h
AUC0-t ([2]; blood, sampling to 6 hours): 7017.4 ng·h/mL
The number of death mice (ICR mice; 350 mg/kg i.p.): 2
The number of death mice (ICR mice; 450 mg/kg i.p.): 8

From patent US8334277B2, “{4-[2-(dimethylamino)-1-(1-hydroxycyclohexyl)ethyl]phenoxy}phosphate or a pharmaceutically acceptable salt thereof, a production method therefor and a pharmaceutical composition for preventing and treating central nervous system disorders containing the same as an active component” (JE IL Pharmaceutical Co., Ltd., priority 2008, dated 2012)
